Values after ≈ are worked out from the molar mass of the structure shown.
Assays:
bacteria and fungi = assay: MIC pH 9.0 versus pH 7.1, all nine organisms; type: cell-based; settings: over the nine organisms tested
Protocol: Minimum inhibitory concentration (MIC) studies were conducted to determine the lowest level of biocide required to inhibit growth of bacteria and fungi. Tests were conducted in 96-well microtiter plates. Biocides were added to growth media in the plates and serially diluted to obtain a range of concentrations. Tests were conducted in one-half strength trypticase soy broth (TSB; adjusted to pH 7.1 or pH 9.0). Bacteria and fungi were added to samples at 10^6 colony forming units per ml and incubated at 30° C. for three days. MIC values were determined visually on a growth no-growth basis.

Acremonium strictum = assay: MIC, fungi, MEB pH 4.7; type: cell-based; settings: Sarocladium strictum, 168 h
Protocol: (§1) Minimum inhibitory concentration (MIC) studies were conducted to determine the lowest level of biocide required to inhibit growth of bacteria and fungi. Tests were conducted in 96-well microtiter plates. Biocides were added to growth media in the plates and serially diluted to obtain a range of concentrations. Bacterial tests were conducted in trypticase soy broth (TSB; pH 7) using an overnight inoculum added at 10^6 colony forming units per ml. […] Fungal tests were conducted in malt extract broth (MEB; pH 4.7) using an 5-7 day inoculum added at 10^4 colony forming units per ml.

Rhodotorula rubra = assay: MIC, fungi, MEB pH 4.7; type: cell-based; settings: 168 h
Protocol: as §1

Trichosporon sp. = assay: MIC, fungi, MEB pH 4.7; type: cell-based; settings: 168 h
Protocol: as §1

Field Isolate (fungi) = assay: MIC, fungi, MEB pH 4.7; type: cell-based; settings: 168 h, MEB pH 4.7, 25° C., 7 days
Protocol: as §1

Fusarium solani = assay: MIC, fungi, MEB pH 4.7; type: cell-based; settings: 168 h
Protocol: as §1

Candida albicans = assay: MIC, fungi, MEB pH 4.7; type: cell-based; settings: 168 h
Protocol: as §1

Geotrichum candidum = assay: MIC, fungi, MEB pH 4.7; type: cell-based; settings: 168 h
Protocol: as §1

Fusarium sp. = assay: MIC, fungi, MEB pH 4.7; type: cell-based; settings: 168 h, MEB pH 4.7, 25° C., 7 days
Protocol: as §1

Bacteria = assay: MIC, average over bacteria; type: cell-based
Protocol: as §1

Fungi = assay: MIC, average over fungi; type: cell-based
Protocol: as §1

[1] = Stability in high pH metalworking fluid use dilutions (HPLC); type: physicochemical; settings: for % MIT Remaining: 25° C.
Protocol: Stability studies were conducted in three high pH metalworking fluid use dilutions to compare the persistence of MIT biocide versus CMIT biocide, tested alone and in combination with MCC). Aliquots of the use-diluted fluids were dosed with 17.5 ppm active CMIT/MIT and CMIT/MIT/MCC and stored at 25° C. Biocide concentrations were determined at time zero and weekly using high performance liquid chromatography (HPLC) analysis.

Pseudomonas oleovorans = assay: MIC, bacteria, TSB pH 7; type: cell-based
Protocol: as §1

Shewanella putrefaciens = assay: MIC, bacteria, TSB pH 7; type: cell-based; settings: 48 h
Protocol: as §1

Pseudomonas aeruginosa = assay: MIC, bacteria, TSB pH 7; type: cell-based; settings: 48 h, TSB pH 7, 25° C., two days
Protocol: as §1

Escherichia coli = assay: MIC, bacteria, TSB pH 7; type: cell-based; settings: 48 h
Protocol: as §1

Klebsiella pneumoniae = assay: MIC, bacteria, TSB pH 7; type: cell-based; settings: 48 h
Protocol: as §1

Proteus mirabilis = assay: MIC, bacteria, TSB pH 7; type: cell-based; settings: 48 h
Protocol: as §1

Pseudomonas putida = assay: MIC, bacteria, TSB pH 7; type: cell-based; settings: 48 h
Protocol: as §1

Enterobacter cloacae = assay: MIC, bacteria, TSB pH 7; type: cell-based; settings: 48 h
Protocol: as §1

Pseudomonas fluorescens = assay: MIC, bacteria, TSB pH 7; type: cell-based; settings: 48 h, TSB pH 7, 25° C., two days
Protocol: as §1

Alcaligenes faecalis = assay: MIC, bacteria, TSB pH 7; type: cell-based; settings: 48 h
Protocol: as §1

Citrobacter freundii = assay: MIC, bacteria, TSB pH 7; type: cell-based; settings: 48 h, TSB pH 7, 25° C., two days
Protocol: as §1

Enterobacter aerogenes = assay: MIC, bacteria, TSB pH 7; type: cell-based; settings: Klebsiella aerogenes, 48 h
Protocol: as §1

Cn1sccc1=O [MI, 2-methyl-4-isothiazolin-3-one]
change of MIC at pH 9.0 versus pH 7.1 (bacteria and fungi): ≤ 2 × | MIC (Acremonium strictum): 16 µg/mL (≈ 139 µM) | MIC (Rhodotorula rubra): 125 µg/mL (≈ 1090 µM) | MIC (Trichosporon sp.): 63 µg/mL (≈ 547 µM) | MIC (Field Isolate (fungi); first listed): 8 µg/mL (≈ 69.5 µM) | MIC (Field Isolate (fungi); second listed): 21 µg/mL (≈ 182 µM) | MIC (Field Isolate (fungi); third listed): 6 µg/mL (≈ 52.1 µM) | MIC (Fusarium solani): 13 µg/mL (≈ 113 µM) | MIC (Candida albicans): 100 µg/mL (≈ 868 µM) | MIC (Geotrichum candidum): 250 µg/mL (≈ 2170 µM) | MIC (Fusarium sp.): 25 µg/mL (≈ 217 µM) | MIC (Bacteria; average over the bacteria tested): 24 µg/mL (≈ 208 µM) | MI: CMI + MI MIC Ratio (Bacteria; bacteria, ratio of average MICs): 10.9 | MI: CMI + MI MIC Ratio (Fungi; fungi, ratio of average MICs): 46.8 | MIC (Fungi; read-out: MIC, Average): 63 µg/mL (≈ 547 µM) | % MIT Remaining ([1]; Soluble Fluid 1 (pH 9.2), 2 wk): 95% | % MIT Remaining ([1]; Soluble Fluid 1 (pH 9.2), 4 wk): 100% | % MIT Remaining ([1]; Soluble Fluid 3 (pH 9.3), 2 wk): 95% | % MIT Remaining ([1]; Soluble Fluid 3 (pH 9.3), 4 wk): 100% | % MIT Remaining ([1]; Synthetic Fluid 2 (pH 9.4), 1 wk): 92% | % MIT Remaining ([1]; Synthetic Fluid 2 (pH 9.4), 3 wk): 94% | biocide active retained ([1]; after 3-4 weeks in all three high pH use-diluted fluids): greater than 90% | MIC (Pseudomonas oleovorans; Ectopseudomonas oleovorans, 48 h, pH 7): 6 µg/mL (≈ 52.1 µM) | MIC (Pseudomonas oleovorans; Pseudomonas oleovorans, second listed, TSB pH 7, 25° C., two days): 6 ppm | MIC (Shewanella putrefaciens): 13 µg/mL (≈ 113 µM) | MIC (Pseudomonas aeruginosa; first listed): 15 µg/mL (≈ 130 µM) | MIC (Pseudomonas aeruginosa; second listed): 25 µg/mL (≈ 217 µM) | MIC (Escherichia coli): 31 µg/mL (≈ 269 µM) | MIC (Klebsiella pneumoniae): 12 µg/mL (≈ 104 µM) | MIC (Proteus mirabilis): 21 µg/mL (≈ 182 µM) | MIC (Pseudomonas putida): 13 µg/mL (≈ 113 µM) | MIC (Enterobacter cloacae): 25 µg/mL (≈ 217 µM) | MIC (Pseudomonas fluorescens; first listed): 31 µg/mL (≈ 269 µM) | MIC (Pseudomonas fluorescens; second listed): 16 µg/mL (≈ 139 µM) | MIC (Alcaligenes faecalis): 28 µg/mL (≈ 243 µM) | MIC (Citrobacter freundii; first listed): 25 µg/mL (≈ 217 µM) | MIC (Citrobacter freundii; second listed): 41 µg/mL (≈ 356 µM) | MIC (Enterobacter aerogenes): 82 µg/mL (≈ 712 µM)

Reference: patent US7699995B2, “Water treatment method” (priority 2006, dated 2010)
